Results on 1 compound are retold here after paper PMC8307384, “Characterization of Two α-L-Arabinofuranosidases from Acetivibrio mesophilus and Their Synergistic Effect in Degradation of Arabinose-Containing Substrates” (Microorganisms, 2021).

This experiment deals with T1, AmAraf51 (Acetivibrio mesophilus, UniProt A0A4Q0I2R2).
T1 construct: gene EFD62_11990; complete ORF, 509 residues, no signal peptide; N-terminal His6 tag (not reported cut); E. coli ArcticExpress (DE3), pET24c
In words: TLC of hydrolysis products. The class given is biochemical. Particulars: 85 nM enzyme, 0.5 g/L substrate, pH 6.0, 60 °C.

T1 sequence (A0A4Q0I2R2 entry or part of it): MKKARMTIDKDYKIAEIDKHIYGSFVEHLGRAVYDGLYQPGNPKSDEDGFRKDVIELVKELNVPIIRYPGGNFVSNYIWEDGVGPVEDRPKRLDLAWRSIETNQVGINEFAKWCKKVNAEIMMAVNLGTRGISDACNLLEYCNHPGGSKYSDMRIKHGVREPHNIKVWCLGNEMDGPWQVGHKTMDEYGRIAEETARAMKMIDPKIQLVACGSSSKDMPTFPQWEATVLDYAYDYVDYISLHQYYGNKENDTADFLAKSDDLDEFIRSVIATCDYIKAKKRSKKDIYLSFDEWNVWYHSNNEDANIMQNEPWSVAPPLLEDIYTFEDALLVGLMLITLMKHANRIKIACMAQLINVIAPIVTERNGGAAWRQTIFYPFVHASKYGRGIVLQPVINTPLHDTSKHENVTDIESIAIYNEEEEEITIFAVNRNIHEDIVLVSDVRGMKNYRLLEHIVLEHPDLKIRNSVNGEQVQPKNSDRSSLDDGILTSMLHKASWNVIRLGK

Consider `OC[C@@H]1O[C@@H](OC[C@@H]2O[C@@H](OC[C@@H]3OC(O)[C@H](O)[C@H]3O)[C@H](O)[C@H]2O)[C@H](O)[C@H]1O` (stereo partly shown) [A3, arabinotriose], for which the “TLC of hydrolysis products” value is reported as “incubation of AmAraf51 with three different AOS led to their almost complete hydrolysis to arabinose”.
